Test results published in US20240228463A1, “SODIUM CHANNEL INHIBITORS AND METHODS OF DESIGNING SAME” (Genentech, Inc., priority 2021, published 2024).

These molecules were tested against T1, hNaV1.7 (Homo sapiens, UniProt Q15858) (assay: Patch voltage clamp electrophysiology (EP), Syncropatch 384PE, Nav1.7 in CHO cells). Details: holding potential −50 mV, inhibition based on 7.5 min compound incubation, read-out: hNaV1.7 EP_SP.
T1 construct: expressed in transfected cells
Format: cell-based
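Also: Nav1.7 stably expressed from cDNA in CHO cells, holding potential of −50 mV kept for the entire experiment.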

T1 sequence (Q15858 1-1977 isoform Q15858-3): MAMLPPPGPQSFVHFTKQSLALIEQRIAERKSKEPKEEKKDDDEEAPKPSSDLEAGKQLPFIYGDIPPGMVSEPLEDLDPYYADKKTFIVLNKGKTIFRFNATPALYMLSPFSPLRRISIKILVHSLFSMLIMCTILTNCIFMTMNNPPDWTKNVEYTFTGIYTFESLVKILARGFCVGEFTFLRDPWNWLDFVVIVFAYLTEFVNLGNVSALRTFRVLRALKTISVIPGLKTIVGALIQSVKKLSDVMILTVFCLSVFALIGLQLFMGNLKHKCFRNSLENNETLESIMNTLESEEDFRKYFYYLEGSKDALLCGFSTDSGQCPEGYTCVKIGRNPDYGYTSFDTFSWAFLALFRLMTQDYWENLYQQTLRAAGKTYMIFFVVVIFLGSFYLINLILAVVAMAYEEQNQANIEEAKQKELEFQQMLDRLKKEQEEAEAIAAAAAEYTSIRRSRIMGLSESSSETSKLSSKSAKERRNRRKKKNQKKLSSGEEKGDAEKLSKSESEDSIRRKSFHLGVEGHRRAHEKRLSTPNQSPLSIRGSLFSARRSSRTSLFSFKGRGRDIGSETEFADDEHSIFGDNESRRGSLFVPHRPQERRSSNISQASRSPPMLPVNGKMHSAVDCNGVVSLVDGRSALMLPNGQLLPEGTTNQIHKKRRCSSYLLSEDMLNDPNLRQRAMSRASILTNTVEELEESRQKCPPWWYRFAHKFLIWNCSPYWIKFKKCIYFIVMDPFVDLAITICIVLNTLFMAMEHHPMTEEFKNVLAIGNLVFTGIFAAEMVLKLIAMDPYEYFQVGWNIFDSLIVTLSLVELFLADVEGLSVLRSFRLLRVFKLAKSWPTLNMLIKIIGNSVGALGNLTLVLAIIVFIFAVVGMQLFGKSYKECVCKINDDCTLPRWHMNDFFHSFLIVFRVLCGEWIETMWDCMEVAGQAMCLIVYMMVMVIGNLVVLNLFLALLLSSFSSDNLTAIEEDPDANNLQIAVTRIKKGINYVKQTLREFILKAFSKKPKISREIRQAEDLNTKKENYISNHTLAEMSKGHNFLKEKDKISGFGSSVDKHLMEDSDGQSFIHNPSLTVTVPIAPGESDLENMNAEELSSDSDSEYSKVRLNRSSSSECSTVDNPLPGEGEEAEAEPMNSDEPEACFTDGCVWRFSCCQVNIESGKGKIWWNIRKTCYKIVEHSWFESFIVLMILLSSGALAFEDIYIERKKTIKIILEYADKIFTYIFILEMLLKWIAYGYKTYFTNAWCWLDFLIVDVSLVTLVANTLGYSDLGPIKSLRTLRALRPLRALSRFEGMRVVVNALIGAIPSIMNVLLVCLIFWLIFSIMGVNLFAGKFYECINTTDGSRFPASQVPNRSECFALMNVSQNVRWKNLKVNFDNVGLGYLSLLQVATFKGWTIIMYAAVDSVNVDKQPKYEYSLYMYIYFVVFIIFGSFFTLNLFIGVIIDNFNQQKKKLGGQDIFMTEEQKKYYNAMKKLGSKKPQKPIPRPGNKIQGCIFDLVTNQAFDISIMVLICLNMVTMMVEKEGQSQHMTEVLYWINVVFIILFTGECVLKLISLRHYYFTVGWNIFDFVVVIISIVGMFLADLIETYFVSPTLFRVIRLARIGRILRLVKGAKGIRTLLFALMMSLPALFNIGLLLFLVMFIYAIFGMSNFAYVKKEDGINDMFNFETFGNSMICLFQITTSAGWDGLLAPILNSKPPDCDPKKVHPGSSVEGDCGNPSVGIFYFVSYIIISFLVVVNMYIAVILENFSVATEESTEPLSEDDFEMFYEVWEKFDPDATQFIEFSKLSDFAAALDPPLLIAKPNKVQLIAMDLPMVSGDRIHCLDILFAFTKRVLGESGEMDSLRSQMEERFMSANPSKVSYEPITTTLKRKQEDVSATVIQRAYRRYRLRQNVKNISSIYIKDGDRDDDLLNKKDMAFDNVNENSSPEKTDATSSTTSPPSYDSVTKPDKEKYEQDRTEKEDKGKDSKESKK

| Compound | IC50 |
| --- | --- |
| O=C(NS(=O)(=O)C1CCNCC1)c1cc(Cl)c(OCC2CCCC2)cc1F [Example 324, 5-chloro-4-(cyclopentylmethoxy)-2-fluoro-N-(piperidin-4-ylsulfonyl)-benzamide] | 790 nM |
| O=C(NS(=O)(=O)c1ccc(OC2CCNC2)cc1)c1cc(Cl)c(OCC2CCCC2)cc1F (stereo not drawn) [Example 325, 5-chloro-4-(cyclopentylmethoxy)-2-fluoro-N-((4-(pyrrolidin-3-yloxy)phenyl)sulfonyl)benzamide] | 240 nM |
| CC(C)(C)OC(=O)C1CC2C(C1)C2NS(=O)(=O)NC(=O)c1cc(Cl)c(OCC2CCCC2)cc1F (stereo not drawn) [Example 327, tert-butyl 6-((N-(5-chloro-4-(cyclopentylmethoxy)-2-fluorobenzoyl)-sulfamoyl)amino)bicyclo[3.1.0]hexane-3-carboxylate] | 920 nM |
| O=C(NS(=O)(=O)C1CC1)c1cc(Cl)c(OCC2CCCC2)cc1F [Example 328, 5-chloro-4-(cyclopentylmethoxy)-N-(cyclopropylsulfonyl)-2-fluorobenzamide] | 10 nM |
| CN(C)C1CCN(S(=O)(=O)NC(=O)c2cc(Cl)c(OCC3CCCC3)cc2F)CC1 [Example 329, 5-chloro-4-(cyclopentylmethoxy)-N-((4-(dimethylamino)piperidin-1-yl)sulfonyl)-2-fluorobenzamide] | 1000 nM |
| NCC1CN(S(=O)(=O)NC(=O)c2cc(C3CC3)c(OCC3CCCC3)cc2F)CCO1 (stereo not drawn) [Example 330, N-((2-(aminomethyl)morpholino)sulfonyl)-4-(cyclopentylmethoxy)-5-cyclopropyl-2-fluorobenzamide] | 620 nM |
| CN(C)[C@H]1CCCC[C@@H]1OC1CCN(S(=O)(=O)NC(=O)c2cc(C3CC3)c(OCC3CCCC3)cc2F)CC1 [Example 331, 4-(cyclopentylmethoxy)-5-cyclopropyl-N-((4-(((1S,2S)-2-(dimethylamino)cyclohexyl)oxy)piperidin-1-yl)sulfonyl)-2-fluorobenzamide] | 140 nM |
| CN(C)[C@H]1CCCC[C@@H]1Nc1ccc(S(=O)(=O)Nc2nccs2)c(F)c1 [Example 332, 4-(((1S,2S)-2-(dimethylamino)cyclohexyl)amino)-2-fluoro-N-(thiazol-2-yl)benzenesulfonamide] | 220 nM |
| CN(C)[C@H]1CCCC[C@@H]1Nc1ccc(S(=O)(=O)Nc2nc3ccc(OCC4CCCC4)c(Cl)c3s2)c(F)c1 [Example 333, N-(7-chloro-6-(cyclopentylmethoxy)benzo[d]thiazol-2-yl)-4-(((1S,2S)-2-(dimethylamino)cyclohexyl)amino)-2-fluorobenzenesulfonamide] | 65 nM |
